{
  "source": "patent US20040023295A1",
  "about": "“Methods and systems for analyzing complex biological systems” (priority 2001, published 2004)",
  "system": "Saccharomyces cerevisiae wild type strain BY4743",
  "assay": "AF1 combined gene expression and metabolite data mapped to KEGG reactions and pathways",
  "assay_type": "cell-based",
  "source_text": "In AF1, two different technologies were utilized: gene expression analysis (for examination of mRNA expression) and metabolite analysis. […] As noted previously, existing metabolic databases may be helpful in practicing the methods and systems of the present invention, but many databases include limitations that make their use in data analysis and pathway mapping less than straightforward. […] This caveat to KEGG makes it difficult to pinpoint the correct pathway when attempting to link a gene to a specific pathway. The pathway score indicates how meaningful the mapping is, or how likely it is to be correctly indicative of the pathway involved in the perturbation under examination. […] Degree of perturbation can be calculated, for example, based on a number of standard deviations from a norm, and included in an equation such as the one shown above, so that not only the number of pathways is taken into account, but also accounts for the amount of gene transcript or compound present as compared to a control. […] KEGG links 676 compounds measured in AF1 to a total of 92 pathways. Of the 676 compounds under consideration, 77 were detected in the AF1 samples. […]",
  "data": [
    {"smiles": "C[C@@H]1[C@H](O)[C@@H](C)/C=C/C=C/C=C/C=C/C=C/C=C/C=C/[C@H](O[C@@H]2O[C@H](C)[C@@H](O)[C@H](N)[C@@H]2O)C[C@@H]2O[C@](O)(C[C@@H](O)C[C@@H](O)[C@H](O)CC[C@@H](O)C[C@@H](O)CC(=O)O[C@H]1C)C[C@H](O)[C@H]2C(=O)O", "note": "[Amphoteracin B]", "values": [
      {"measurement": "# Reactions (title: Number Of Pathways Having at Least One Enzyme and One Compound Perturbed)", "result": 37},
      {"measurement": "# Reactions Having an Enzyme and at Least One Compound Perturbed", "result": 54}
    ]}
  ]
}
